{
  "source": "patent US20060211573A1",
  "about": "“7-(Akenylamino)triazolopyrimidines, method for the production thereof and use thereof in controlling harmful fungi and substances containing said triazolopyrimidines” (priority 2003, published 2006)",
  "system": "Alternaria solani",
  "assay": "Activity against early blight of tomato caused by Alternaria solani (protective spray on tomato leaves)",
  "format": "in vivo",
  "settings": "250 ppm active compound, sprayed one day before infection, assessed after 5 days; untreated plants 100% infected",
  "protocol": "The active compounds were prepared, separately or together, as a stock solution with 0.25% by weight of active compound in acetone or DMSO. 1% by weight of the emulsi-fier Uniperol® EL (wetting agent with an emulsifying and dispersing action based on ethoxylated alkylphenols) was added to this solution and appropriately diluted with water to the desired concentration. Leaves of pot plants of the variety “Grope Fleischtomate St. Pierre” were sprayed to runoff point with an aqueous suspension in the active compound concentration given below. On the following day, the leaves were infected with an aqueous suspension of spores of Alternaria solani in 2% Biomalz solution with a concentration of 0.17×10^6 spores/ml. The plants were subsequently placed in a chamber saturated with water vapor at temperatures between 20 and 22° C. After 5 days, leaf infection in the untreated but infected control plants had so extensively developed that the infection could be visually determined in %.",
  "data": [
    {"molecule": "C=CC(C)Nc1c(-c2c(F)cc(F)cc2F)c(Cl)nc2ncnn12", "note": "(stereo not shown) [I-1, 5-chloro-6-(2,4,6-trifluorophenyl)-7-(1-methyl-2-propen-1-yl)amino[1,2,4]triazolo[1,5-a]pyrimidine]", "values": [
      {"measurement": "leaf infection, visually determined in %", "value": "no infection"}
    ]}
  ]
}
